Experimental data as given in patent US10729710B2, “Catecholamine prodrugs for use in the treatment of Parkinson's disease” (H. Lundbeck A/S, priority 2017, dated 2020).
Structures can show the parent of a compound that is named as a salt.

Tests used:
[1] = target: human D1 receptor (Homo sapiens (Human), UniProt P21728); experiment: Dopamine D1 receptor agonism, HTRF cAMP assay; assay type: cell-based; conditions: normalized to 30 uM dopamine = 100%
Experimental: Dopamine D1 receptor agonism was measured using a HTRF cAMP from CisBio using the protocol developed by HD Biosciences (China). Briefly, the assay is a homogeneous time resolved-fluorescence resonance energy transfer (HTRF) assay that measures production of cAMP by cells in a competitive immunoassay between native cAMP produced by cells and cAMP-labeled with XL-665. A cryptate-labeled anti-cAMP antibody visualizes the tracer. The assay was performed in accordance with instructions from manufacturer.
Test compounds were added to wells of microplates (384 format). HEK-293 cells expressing the human D1 receptor were plated at 1000 cells/well and incubated 30 min at room temperature. cAMP-d2 tracer was added to wells and followed by addition of Anti-cAMP antibody-cryptate preparation and incubated for 1 h at room temperature in dark. HTRF cAMP was measured by excitation of the donor with 337 nm laser (the “TRF light unit”) and subsequent (delay time 100 microseconds) measurement of cryptate and d2 emission at 615 nm and 665 nm over a time window of 200 microseconds with a 2000 microseconds time window between repeats/100 flashes). HRTF measurements were performed on an Envision microplate reader (PerkinElmer). The HTRF signal was calculated as the emission-ratio at 665 nm over 615 nm. The HTRF ratio readout for test compounds was normalized to 0% and 100% stimulation using control wells with DMSO-solvent or 30 uM dopamine. Test compound potency (EC50) was estimated by nonlinear regression using the sigmoidal dose-response (variable slope) using Xlfit 4 (IDBS, Guildford, Surrey, UK, model 205). y=(A+((B−A)/(1+((C/x)^D)))) where y is the normalized HTRF ratio measurement for a given concentration of test compound, x is the concentration of test compound, A is the estimated efficacy at infinite compound dilution, and B is the maximal efficacy. C is the EC50 value and D is the Hill slope coefficient. EC50 estimates were obtained from an independent experiment and the logarithmic average was calculated. Dopamine D2 Receptor Agonism

[2] = target: T1, human 5-HT2B receptor (Homo sapiens (Human), UniProt P41595); experiment: 5-HT2B agonist activity assay (IP1 production, HTRF); assay type: cell-based; conditions: read-out: 5-HT2B Emax
Experimental: Evaluation of the agonist activity of compounds (I), (Ia) and (Ib) at the human 5-HT2B receptor was performed by Eurofins/Cerep (France) measuring the compound effects on inositol monophosphate (IP1) production using the HTRF detection method. Briefly, the human 5-HT2B receptor was expressed in transfected CHO cells. The cells were suspended in a buffer containing 10 mM Hepes/NaOH (pH 7.4), 4.2 mM KCl, 146 mM NaCl, 1 mM CaCl2, 0.5 mM MgCl2, 5.5 mM glucose and 50 mM LiCl, then distributed in microplates at a density of 4100 cells/well and incubated for 30 min at 37° C. in the presence of buffer (basal control), test compound or reference agonist. For stimulated control measurement, separate assay wells contained 1 μM 5-HT. Following incubation, the cells were lysed and the fluorescence acceptor (fluorophen D2-labeled IP1) and fluorescence donor (anti-IP1 antibody labeled with europium cryptate) were added. After 60 min at room temperature, the fluorescence transfer was measured at lambda(Ex) 337 nm and lambda(Em) 620 and 665 nm using a microplate reader (Rubystar, BMG). The IP1 concentration was determined by dividing the signal measured at 665 nm by that measured at 620 nm (ratio). The results were expressed as a percent of the control response to 1 μM 5-HT. The standard reference agonist was 5-HT, which was tested in each experiment at several concentrations to generate a concentration-response curve from which its EC50 value is calculated as described above for dopamine functional assays.

[3] = target: human D2 receptor (Homo sapiens (Human), UniProt P14416); experiment: Dopamine D2 receptor agonism, calcium mobilization assay; assay type: cell-based; conditions: normalized to 1 μM dopamine = 100%
Experimental: Dopamine D2 receptor agonism was measured using a calcium mobilization assay protocol developed by HD Biosciences (China). Briefly, HEK293/G15 cells expressing human D2 receptor were plated at a density of 15000 cells/well in clear-bottomed, Matrigel-coated 384-well plates and grown for 24 hrs at 37° C. in the presence of 5% CO2. The cells were incubated with calcium-sensitive fluorescent dye, Fluo8, for 60-90 minutes at 37° C. in the dark. Test compounds were prepared at 3-fold concentrated solution in 1×HBSS buffer with Ca^2+ and Mg^2+. Calcium Flux signal was immediately recorded after compounds were added from compound plate to cell plate at FLIPR (Molecular Devices). The fluorescence data were normalized to yield responses for no stimulation (buffer) and full stimulation (1 μM of dopamine) of 0% and 100% stimulation, respectively. Test compound potency (EC50) was estimated by nonlinear regression using the sigmoidal dose-response (variable slope) using Xlfit 4 (IDBS, Guildford, Surrey, UK, model 205). y=(A+((B−A)/(1+((C/x)^D)))) where y is the normalized ratio measurement for a given concentration of test compound, x is the concentration of test compound, A is the estimated efficacy at infinite compound dilution, and B is the maximal efficacy. C is the EC50 value and D is the Hill slope coefficient. EC50 estimates were obtained from independent experiment and the logarithmic average was calculated.

[4] = Liu et al., Bioorganic Med. Chem. (2008); cited from earlier work
[5] = in man after oral dosing; cited from earlier work
[6] = male, Han Wistar, rat, in vivo, po, 4 h
Experimental: (§1) Plasma was placed on water-ice following collection. Final storage at approximately −70° C.
Mass spectrometer (UPCLC-MS/MS) Waters Acquity I-Class-Waters Xevo TQ-S. Analytical column Acquity HSS T3 C18 50×2.1 mm, 1.8 μm. Mobile phase A: 10 mM NH4-Formate 0.2% formic acid:Acetonitril (95:5). Mobile phase B: 10 mM NH4-Formate 0.2% formic acid:Acetonitril (5:95). Gradient run from 95/5% to 5/95% in 2.40 min. Flow rate 0.3 mL/min. MRM detection of test items and the added analytical standards
The rats had unrestricted access to the diet. Male Han Wistar rats were administered a single dose of apomorphine either subcutaneously or orally by gavage, or administered a single dose of apormorphine conjugates orally by gavage.

[7] = test system: hepatocytes from human; experiment: Conversion to compound (I) in human hepatocytes; assay type: in vitro ADME; conditions: 1 μg/mL, 37° C., 0.25-60 minutes, FIG. 7b
Experimental: (§2) The cell concentration at incubation was 1×10^6 viable cells/mL. The incubations were performed in glass tubes at 37° C. with a total incubation volume of 3.5 mL and with duplicate incubations for each test item. The 3.5 mL of hepatocyte suspension was equilibrated for 10 minutes in a water bath set to 37° C. where after the incubations were initiated by adding 3.5 μL of a stock solution of the test item in DMSO (Dimethyl sulfoxide) and gently inverting the tubes. The final solvent concentration in the incubations was 0.1% DMSO. Samples of 600 μL were withdrawn from the incubations at the pre-determined time points of 0.25, 5, 15, 30 and 60 minutes after ensuring homogeneity of hepatocyte suspensions. The withdrawn volume was added to 1 mL Nunc cryo tubes on wet ice containing 60 μL of ice cold ascorbic acid (100 mg/mL) and 30 μL of ice cold 100 mM saccharic acid 1.4-lactone in 0.5 M citric acid. The tubes were mixed and 35 μL of a solution of ice cold 20% formic acid was added. The tubes were mixed thoroughly and stored at −80° C. awaiting analysis. Analysis method and Instrumentation used for analysis of (I) from dosing (Id-ia), (Id-ib), (Id-iia) and (Id-iib), were the one described in Examples 4 and 5 below in the section “Instrumentation used for analysis of compound (I) from dosing of compounds (Ic), (Id-ia), (Id-ib), (Id-iia), (Id-iib), (Id-iab) and (Id-iiab).”
(§3) Analysis method and Instrumentation used for analysis of (I) from dosing (Id-iab) and (Id-iiab) consisted of mixing equal aliquots of the samples and precipitation solution (acetonitrile (MeCN) with 10% methanol (MeOH) and 1% formic acid), followed by centrifugation at 4° C. at 16000 g for 10 minutes. Supernatants were collected and analysed by LC-MS/MS. Mass spectrometer: Waters Acquity—Waters Xevo TQ-MS. Analytical column: Acquity UPLC HSS T3, 100×2.1 mm, 1.8 μm. Mobile phase A: 0.2% formic acid in water. Mobile phase B: 0.2% formic acid in acetonitrile. Gradient run from 95/5% to 60/40 in 5 min. Flow rate 0.3 mL/min. MRM monitoring of (I) in the study samples and in the analytical standards.

[8] = test system: hepatocytes from rat; experiment: Conversion to compound (I) in rat hepatocytes; assay type: in vitro ADME; conditions: 1 μg/mL, 37° C., 0.25-60 minutes, FIG. 7a
Experimental: as §2, §3

[9] = PK experiments in rats: plasma compound (I) after oral dosing of prodrugs; assay type: in vivo, Han Wistar rats; conditions: Wistar rats, FIG. 2, doses equal to 287 μg/kg of compound (I)
Experimental: as §1
Mobile phase B: Acetonitrile. […] Flow rate 0.5 mL/min.
The rats had unrestricted access to the diet.
Mobile phase B: Acetonitrile+0.2% formic acid. […] Flow rate 0.3 mL/min.
Han Wistar rats were supplied by Envigo, UK. […] The rats received a standard laboratory diet Teklad 2014C. The rats had unrestricted access to the diet.

[10] = Stability of the disulfate in acidic conditions (LCMS); assay type: physicochemical; conditions: LCMS with acidic eluent
[11] = target: T1, human 5-HT2B receptor; experiment: 5-HT2B radioligand binding assay ([125I](±)DOI); conditions: 0.2 nM [125I](±)DOI, read-out: 5-HT2B binding affinity (% inhibition of control, specific binding at concentration indicated)
Experimental: Membrane homogenates prepared from CHO cells expressing the human 5HT2B receptor were incubated for 60 min at room temperature with 0.2 nM [125I](±)DOI (1-(4-iodo-2, 5-dimethoxyphenyl)propan-2-amine) in the absence or presence of the test compound in a buffer containing 50 mM Tris-HCl (pH 7.4), 5 mM MgCl2, 10 μM pargyline and 0.1% ascorbic acid. Nonspecific binding is determined in the presence of 1 μM (±)DOI. Following incubation, the samples were filtered rapidly under vacuum through glass fiber filters (GF/B, Packard) presoaked with 0.3% polyethyleneimine (PEI) and rinsed several times with ice-cold 50 mM Tris-HCl using a 96-sample cell harvester (Unifilter, Packard). The filters were dried and counted for radioactivity in a scintillation counter (Topcount, Packard) using a scintillation cocktail (Microscint 0, Packard). The results are expressed as a percent inhibition of the control radioligand specific binding. The standard reference compound was (±)DOI, which was tested in each experiment at several concentrations to obtain a competition curve from which its IC50 is calculated.

T1 sequence (P41595 whole entry): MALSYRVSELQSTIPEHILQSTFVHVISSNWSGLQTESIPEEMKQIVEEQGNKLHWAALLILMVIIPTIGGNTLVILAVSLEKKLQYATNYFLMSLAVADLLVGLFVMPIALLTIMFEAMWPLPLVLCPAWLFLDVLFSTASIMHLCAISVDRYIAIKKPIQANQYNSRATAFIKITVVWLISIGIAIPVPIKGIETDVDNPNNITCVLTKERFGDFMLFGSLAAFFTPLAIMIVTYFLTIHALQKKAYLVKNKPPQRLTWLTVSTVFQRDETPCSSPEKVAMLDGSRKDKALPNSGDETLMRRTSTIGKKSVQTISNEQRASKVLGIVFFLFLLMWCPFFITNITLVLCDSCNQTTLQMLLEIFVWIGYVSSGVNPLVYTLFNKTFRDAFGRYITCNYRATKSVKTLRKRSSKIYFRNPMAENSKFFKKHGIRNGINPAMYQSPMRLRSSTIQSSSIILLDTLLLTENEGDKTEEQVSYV
Sequence of human D1 receptor (P21728 whole entry): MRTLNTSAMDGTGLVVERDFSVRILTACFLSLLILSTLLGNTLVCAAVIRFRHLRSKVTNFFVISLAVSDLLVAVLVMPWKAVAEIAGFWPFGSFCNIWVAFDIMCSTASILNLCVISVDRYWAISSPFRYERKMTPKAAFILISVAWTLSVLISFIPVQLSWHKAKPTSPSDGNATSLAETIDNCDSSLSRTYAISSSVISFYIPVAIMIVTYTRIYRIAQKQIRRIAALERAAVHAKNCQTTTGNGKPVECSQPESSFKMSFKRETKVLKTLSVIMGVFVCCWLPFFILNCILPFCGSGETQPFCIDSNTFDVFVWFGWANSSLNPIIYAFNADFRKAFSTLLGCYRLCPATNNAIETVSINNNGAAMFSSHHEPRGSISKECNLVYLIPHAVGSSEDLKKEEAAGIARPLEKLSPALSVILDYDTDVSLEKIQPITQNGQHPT
Sequence of human D2 receptor (P14416 whole entry): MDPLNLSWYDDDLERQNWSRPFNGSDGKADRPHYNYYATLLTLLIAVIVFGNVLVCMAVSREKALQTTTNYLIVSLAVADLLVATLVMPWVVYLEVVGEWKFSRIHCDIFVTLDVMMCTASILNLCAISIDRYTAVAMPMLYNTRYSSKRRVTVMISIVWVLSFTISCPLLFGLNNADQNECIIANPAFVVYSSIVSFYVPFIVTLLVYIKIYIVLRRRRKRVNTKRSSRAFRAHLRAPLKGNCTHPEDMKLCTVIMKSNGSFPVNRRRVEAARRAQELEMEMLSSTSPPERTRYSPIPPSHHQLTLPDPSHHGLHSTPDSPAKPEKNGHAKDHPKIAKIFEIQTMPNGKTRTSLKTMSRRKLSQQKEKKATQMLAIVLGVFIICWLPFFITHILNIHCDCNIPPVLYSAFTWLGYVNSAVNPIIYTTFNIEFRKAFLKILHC

## CCCN1CCC[C@@H]2Cc3c(ccc(O)c3O)C[C@H]21 [(I), (4aR,10aR)-1-n-Propyl-1,2,3,4,4a,5,10,10a-octahydro-benzo[g]quinoline-6,7-diol, reference compound]
[1]
  Emax: 99%
[2]
  Emax: 50%
[3]
  Emax: 91%
[4]
  oral bioavailability (in words): low oral bioavailability

## CCCc1cc2c(s1)CN[C@@H]1CCc3cc(OC(C)=O)c(OC(C)=O)cc3[C@@H]21 [Adrogolide]
[5]
  oral bioavailability: ~4%

## CN1CCc2cccc3c2[C@H]1Cc1ccc(O[C@@H]2O[C@H](C(=O)O)[C@@H](O)[C@H](O)[C@H]2O)c(O)c1-3 [(2S,3S,4S,5R,6S)-6-[[(6aR)-11-hydroxy-6-methyl-5,6,6a,7-tetrahydro-4H-dibenzo[de,g]quinolin-10-yl]oxy]-3,4,5-trihydroxy-tetrahydropyran-2-carboxylic acid]
[6]
  apomorphine in plasma at one time point: 916 pg/mL

## CCCN1CCC[C@@H]2Cc3c(ccc(OS(=O)(=O)O)c3OS(=O)(=O)O)C[C@H]21 [(Id-iiab), (4aR,10aR)-1-propyl-1,2,3,4,4a,5,10,10a-octahydrobenzo[g]quinoline-6,7-diyl bis(hydrogen sulfate)]
[7]
  conversion to compound (I) in human hepatocytes: could not be detected
[8]
  conversion to compound (I) in rat hepatocytes: could not be detected
[9]
  plasma profile of compound (I) after oral dosing (in words): slower absorption rate avoiding rapid peak concentrations accompanied by a sustained exposure of compound (I) in plasma
[10]
  stability in acidic conditions (in words): instability

## CCCN1CCC[C@@H]2Cc3c(ccc(O[C@@H]4O[C@H](C(=O)O)[C@@H](O)[C@H](O)[C@H]4O)c3O[C@@H]3O[C@H](C(=O)O)[C@@H](O)[C@H](O)[C@H]3O)C[C@H]21 [(Id-iab), (2S,2′S,3S,3′S,4S,4′S,5R,5′R,6S,6′S)-6,6′-(((4aR,10aR)-1-propyl-1,2,3,4,4a,5,10,10a-octahydrobenzo[g]quinoline-6,7-diyl)bis(oxy))bis(3,4,5-trihydroxytetrahydro-2H-pyran-2-carboxylic acid)]
[7]
  conversion to compound (I) in human hepatocytes: time dependent conversion to compound (I)
[8]
  conversion to compound (I) in rat hepatocytes: time dependent conversion to compound (I)
[9]
  plasma profile of compound (I) after oral dosing (in words): slower absorption rate avoiding rapid peak concentrations accompanied by a sustained exposure of compound (I) in plasma
[11]
  inhibition at 10 µM: 17%
